Our source for the LC retention time values is the RepoRT retention time repository (doi:10.1016/j.chroma.2014.05.003).

The data set in a line: RP, Agilent ZORBAX Eclipse Plus C18, 50 × 4.6 mm, 1.8 µm, 0.5 mL/min, estimated dead time 1.1 min; A: water + 0.1% formic acid; B: acetonitrile + 0.1% formic acid; gradient (min/%B) 0/10 3/10 25/100 28/100. As to conditions: stereoisomer not certain.

For `CN1CCC23c4c5ccc(O)c4OC2C(O)C=CC3C1C5` (configuration not stated), the LC retention time is 1.47 min.

In the case of `CC(=O)CC(c1ccccc1)c1c(O)c2ccccc2oc1=O` (configuration not stated), the LC retention time is 14.9 min.

On to `CCOP(=S)(OCC)SCn1nnc2ccccc2c1=O`, for which the LC retention time was 17.4 min.

As to `CNC(=O)Oc1cccc2c1OC(C)(C)C2`, the LC retention time was 12.1 min. As for `Cc1cccc(Nc2ccccc2C(=O)O)c1C`, the LC retention time was 17.7 min.

On to `CCCSc1ccc2nc(NC(=O)OC)[nH]c2c1`, for which the LC retention time is 10.5 min.

As to `CNC(=O)ON=C(C)C(C)SC` (configuration not stated), the LC retention time was 9.65 min. In the case of `C#CC1(O)CCC2C3CCc4cc(O)ccc4C3CCC21C` (configuration not stated), the LC retention time is 14.3 min. With `CC(COc1ccc(Oc2ccccc2)cc1)Oc1ccccn1` (configuration not stated), the LC retention time was 21.2 min.

For `Cc1cc(C)nc(Nc2ccccc2)n1`, the LC retention time was 11.6 min. In the case of `Cc1c(N)c(=O)n(-c2ccccc2)n1C` it was 2.39 min; in that of `COP(=S)(OC)Oc1ccc(SC)c(C)c1`, 18.5 min. Then `COCc1cnc(C2=NC(C)(C(C)C)C(=O)N2)c(C(=O)O)c1` (configuration not stated), with 8.04 min. Consider `CCNC(C)Cc1ccc2c(c1)OCO2` (configuration not stated), for which the LC retention time was 6.16 min. Then `CNC(=O)Oc1cc(C)c(SC)c(C)c1`, with 15 min; and `COCC(=O)N(c1c(C)cccc1C)N1CCOC1=O`, with 10.9 min. On to `COc1ccc2cc(C(C)C(=O)O)ccc2c1` (configuration not stated), for which the LC retention time was 13.8 min.

In the case of `CC(C)(C)c1ccc(CCOc2ncnc3ccccc23)cc1`, the LC retention time is 22 min.

For `CC12CCC3C(CCC4=CC(=O)CCC43C)C1CCC2=O` (configuration not stated), the LC retention time is 14.8 min. Then `CSc1nc(NC(C)C)nc(NC(C)C)n1`, with 12.1 min; and `CCC1OC(=O)CC(O)C(C)C(OC2OC(C)C(OC3CC(C)(O)C(O)C(C)O3)C(N(C)C)C2O)C(CC=O)CC(C)C(=O)C=CC(C)=CC1COC1OC(C)C(O)C(OC)C1OC` (configuration not stated), with 10.1 min; and `CSC(C)=NOC(=O)N(C)SN(C)C(=O)ON=C(C)SC`, with 11.8 min. Then `Cc1nnc(NS(=O)(=O)c2ccc(N)cc2)s1`, with 7.12 min.

Take `COCC(=O)N(c1c(C)cccc1C)C(C)C(=O)OC` (configuration not stated): the LC retention time was 12.9 min. In the case of `CCOC(=O)N(C)C(=O)CSP(=S)(OCC)OCC` it was 17.8 min. Then `CCOc1cc(OP(=S)(OC)OC)nc(CC)n1`, with 18.8 min; and `CC(N)Cc1ccc2c(c1)OCO2` (configuration not stated), with 4.74 min; and `CN1C(=O)CCC1c1cccnc1` (configuration not stated), with 1.35 min. In the case of `CCC(C)c1ccccc1OC(=O)NC` (configuration not stated), the LC retention time was 15 min.

In the case of `CNC(=O)N(C)c1nc2ccccc2s1`, the LC retention time is 12.1 min. Regarding `CNC(=O)CSP(=O)(OC)OC`, the LC retention time is 2.22 min.

As for `CCSC(=O)N1CCCCCC1`, the LC retention time is 16 min. Turning to `CC12CCC(O)CC1CCC1C2CC(O)C2(C)C(C3=CC(=O)OC3)CCC12O` (configuration not stated), the LC retention time is 8.14 min.

For `CCC1CCCC(OC2CCC(N(C)C)C(C)O2)C(C)C(=O)C2=CC3C(C=CC4CC(OC5OC(C)C(OC)C(OC)C5OC)CC43)C2CC(=O)O1` (configuration not stated), the LC retention time was 14.9 min. As for `CC(C)c1cc(Oc2ccccc2)cc(C(C)C)c1NC(=S)NC(C)(C)C`, the LC retention time is 22.3 min.

Regarding `CCNc1nc(NC(C)C)nc(SC)n1`, the LC retention time is 10.4 min. For `COP(N)(=S)Oc1ccccc1C(=O)OC(C)C` (configuration not stated), the LC retention time is 14.9 min. In the case of `CNC(=O)Oc1cc(C)cc(C(C)C)c1` it was 15 min; in that of `CC12CCC3c4ccc(O)cc4CCC3C1CC(O)C2O` (configuration not stated), 9.36 min. For the molecule `CC1(C)SC2C(NC(=O)C(N)c3ccccc3)C(=O)N2C1C(=O)O` (configuration not stated), the LC retention time was 7.93 min. As for `Cn1c(=O)c2c(ncn2C)n(C)c1=O`, the LC retention time was 5.08 min. In the case of `CCn1cc(C(=O)O)c(=O)c2ccc(C)nc21` it was 11.5 min.

Consider `Nc1ncn[nH]1`, for which the LC retention time was 1.36 min. For `CNC(=O)Oc1cccc(C)c1`, the LC retention time is 11 min.

Turning to `COc1nn(CSP(=S)(OC)OC)c(=O)s1`, the LC retention time was 15.3 min. For `CN1C2CCC1CC(OC(=O)C(CO)c1ccccc1)C2` (configuration not stated), the LC retention time was 6.29 min. Then `CON=C(C(=O)NC1C(=O)N2C(C(=O)O)=C(COC(C)=O)CSC12)c1csc(N)n1` (configuration not stated), with 6.29 min; and `CCN(CC)C(=O)c1cccc(C)c1`, with 12.8 min; and `COc1cc(NS(=O)(=O)c2ccc(N)cc2)nc(OC)n1`, with 10.4 min. Then `CC12CCC3c4ccc(O)cc4CCC3C1CCC2=O` (configuration not stated), with 14.6 min; and `CCCOC(=O)NCCCN(C)C`, with 2.3 min; and `COc1nc(NC(C)C)nc(NC(C)C)n1`, with 9.02 min. In the case of `COc1cc(C2c3cc4c(cc3C(OC3OC5COC(C)OC5C(O)C3O)C3COC(=O)C23)OCO4)cc(OC)c1OP(=O)(O)O` (configuration not stated) it was 16.1 min.

In the case of `CC1(C)SC2C(NC(=O)Cc3ccccc3)C(=O)N2C1C(=O)O` (configuration not stated), the LC retention time was 10.8 min. As for `COC(=O)C(C)N(C(=O)Cc1ccccc1)c1c(C)cccc1C` (configuration not stated), the LC retention time was 18.1 min. Take `CCSCc1ccccc1OC(=O)NC`: the LC retention time is 13.1 min. Then `CC(C)C1(C)N=C(c2ncccc2C(=O)O)NC1=O` (configuration not stated), with 16.5 min; and `c1coc(-c2nc3ccccc3[nH]2)c1`, with 5.19 min; and `Cc1ccc(C(C)(C)C)c(O)c1C(=O)O`, with 14.2 min. Consider `CCCCN(CC)C(=O)SCCC`, for which the LC retention time was 19.6 min. Then `CCOP(=S)(OCC)OP(=S)(OCC)OCC`, with 19.3 min. Then `C=C(C)C1CCC(C)=CC1c1c(O)cc(CCCCC)cc1O` (configuration not stated), with 21.2 min; and `CN(C)C(=O)Nc1cccc(OC(=O)NC(C)(C)C)c1`, with 11.6 min; and `COP(=S)(OC)SCn1nnc2ccccc2c1=O`, with 15.4 min. In the case of `CNC(=O)CSP(=S)(OC)OC` it was 9 min; in that of `CNC(=O)Oc1ccc(N(C)C)c(C)c1`, 1.85 min; in that of `CC1c2cccc(O)c2C(O)=C2C(=O)C3(O)C(O)=C(C(N)=O)C(=O)C(N(C)C)C3C(O)C21` (configuration not stated), 8.75 min. With `CN=C(NC#N)NCCSCc1nc[nH]c1C`, the LC retention time is 1.83 min. Consider `CCN(CC)C(=O)C(C)Oc1cccc2ccccc12` (configuration not stated), for which the LC retention time was 16.3 min.

For `CCOP(=S)(Oc1ccc([N+](=O)[O-])cc1)c1ccccc1` (configuration not stated), the LC retention time was 20 min. Turning to `CNC(=O)ON=CC(C)(C)SC`, the LC retention time is 10.2 min.

As for `COP(=S)(OC)Oc1ccc(S(=O)(=O)N(C)C)cc1`, the LC retention time was 15.3 min.

Regarding `COC(=O)C1C(OC(=O)c2ccccc2)CC2CCC1N2C` (configuration not stated), the LC retention time was 7.3 min.

Regarding `NC(=O)Cc1cccc2ccccc12`, the LC retention time is 10 min. On to `CCNc1nc(NC(C)C(C)C)nc(SC)n1` (configuration not stated), for which the LC retention time was 13.1 min. With `CC(=O)Nc1ccc(O)cc1`, the LC retention time was 2.66 min.

Turning to `c1ccc2[nH]c(-c3cscn3)nc2c1`, the LC retention time is 4.54 min. For the molecule `CCOc1ccc2c(c1)C(C)=CC(C)(C)N2`, the LC retention time is 11.8 min.

Consider `COc1ccc(Oc2ccc(NC(=O)N(C)C)cc2)cc1`, for which the LC retention time was 13.3 min. In the case of `CC(C)N1C(=O)N(c2ccccc2)CSC1=NC(C)(C)C`, the LC retention time is 18.3 min. As to `CCCCCc1cc(O)c2c(c1)OC(C)(C)C1CCC(C)=CC21` (configuration not stated), the LC retention time is 23.6 min.

As to `COC1C(O)CC(=O)OC(C)CC=CC=CC(OC2CCC(N(C)C)C(C)O2)C(C)CC(CC=O)C1OC1OC(C)C(OC2CC(C)(O)C(O)C(C)O2)C(N(C)C)C1O` (configuration not stated), the LC retention time is 7.59 min.

Regarding `O=c1[nH]c2c(c(=O)n1C1CCCCC1)CCC2`, the LC retention time was 11.3 min.

As for `Cc1cc(C)c(C2=C(OC(=O)CC(C)(C)C)C3(CCCC3)OC2=O)c(C)c1`, the LC retention time is 23.1 min. Then `CCNC(C)Cc1ccccc1` (configuration not stated), with 5.85 min; and `CCOP(=S)(OCC)Oc1ccc(=O)n(-c2ccccc2)n1`, with 16.1 min; and `NC(=O)N1c2ccccc2C=Cc2ccccc21`, with 11.2 min.

In the case of `CCOC(=O)CCN(SN(C)C(=O)Oc1cccc2c1OC(C)(C)C2)C(C)C`, the LC retention time is 20.8 min. On to `CCOC(=O)C(CCc1ccccc1)NC(C)C(=O)N1CCCC1C(=O)O` (configuration not stated), for which the LC retention time was 9.21 min.

Consider `COC=C(C(=O)OC)c1ccccc1Oc1cc(Oc2ccccc2C#N)ncn1`, for which the LC retention time is 15.8 min.

On to `CC(C)NCC(O)COc1cccc2[nH]ccc12` (configuration not stated), for which the LC retention time was 5.55 min. In the case of `CNC(C)Cc1ccccc1` (configuration not stated) it was 4.88 min. With `Cc1nnc(-c2ccccc2)c(=O)n1N`, the LC retention time is 7.57 min. As to `CN(C)C1C(=O)C(C(N)=O)=C(O)C2(O)C(=O)C3=C(O)c4c(O)cccc4C(C)(O)C3CC12` (configuration not stated), the LC retention time was 6.62 min. In the case of `CCOP(=S)(OCC)Oc1cnc2ccccc2n1` it was 18.2 min; in that of `CCCN(CCC)c1c([N+](=O)[O-])cc(S(N)(=O)=O)cc1[N+](=O)[O-]`, 17 min; in that of `CC(N)Cc1ccccc1` (configuration not stated), 3.82 min. Take `CCOC(=O)NCCOc1ccc(Oc2ccccc2)cc1`: the LC retention time is 17 min.

With `CC1=C(C(=O)Nc2ccccc2)SCCO1`, the LC retention time was 13.1 min.

Consider `CCn1cc(C(=O)O)c(=O)c2cnc(N3CCNCC3)nc21`, for which the LC retention time is 4.78 min.

For the molecule `COP(=S)(OC)Oc1ccc([N+](=O)[O-])c(C)c1`, the LC retention time was 17.2 min. Then `CON(C(=O)c1cc(C)oc1C)C1CCCCC1`, with 17.7 min.
